Measured values published in patent US10421761B2, “Compounds for kinase modulation, and indications therefor” (Plexxikon Inc., priority 2013, dated 2019).

System: B9 cells
Conditions: Repl. 1; B9 cells

SMILES: CCCS(=O)(=O)Nc1ccc(F)c(C(=O)c2c[nH]c3ncc(-c4ccc(Cl)cc4)cc23)c1F [vemurafenib]
- probe 1426300_at response, Alcam (activated leukocyte cell adhesion molecule): 2.35
- probe 1426306_a_at response, LOC100046560 /// Maged2 (similar to melanoma antigen family D, 2 /// melanoma antigen, family D, 2): 2.18
- probe 1426708_at response, Antxr2 (anthrax toxin receptor 2): 2.19
- probe 1426806_at response, Obfc2a (oligonucleotide/oligosaccharide-binding fold containing 2A): 2.33
- probe 1426848_at response, LOC100047481 /// Sec24b (similar to SEC24 related gene family, member B (S. cerevisiae) /// Sec24 related gene family, member B (S. cerevisiae)): 0.69
- probe 1426972_at response, Sec24d (Sec24 related gene family, member D (S. cerevisiae)): 2.06
- probe 1427278_at response, Clip4 (CAP-GLY domain containing linker protein family, member 4): 1.98
- probe 1427364_a_at response, Odc1 (ornithine decarboxylase, structural 1): 2.73
- probe 1427512_a_at response, Lama3 (laminin, alpha 3): 2.61
- probe 1427527_a_at response, Pthlh (parathyroid hormone-like peptide): 2.73
- probe 1427885_at response, Pold4 (polymerase (DNA-directed), delta 4): 2.20
- probe 1428114_at response, Slc14a1 (solute carrier family 14 (urea transporter), member 1): 2.61
- probe 1428195_at response, Ahcyl2 (S-adenosylhomocysteine hydrolase-like 2): 2.42
- probe 1428228_at response, Pgm3 (phosphoglucomutase 3): 2.18
- probe 1428419_at response, 5430411K18Rik (RIKEN cDNA 5430411K18 gene): 2.16
- probe 1428851_at response, 1300014I06Rik (RIKEN cDNA 1300014I06 gene): 2.30
- probe 1429700_at response, 3110040M04Rik (RIKEN cDNA 3110040M04 gene): 3.18
- probe 1429844_at response, 2310043J07Rik (RIKEN cDNA 2310043J07 gene): 0.52
- probe 1430010_at response, Ncapd2 (non-SMC condensin I complex, subunit D2): 0.43
- probe 1430567_at response, Spink5 (serine peptidase inhibitor, Kazal type 5): 0.46
- probe 1430623_s_at response, Obfc2a (oligonucleotide/oligosaccharide-binding fold containing 2A): 2.11
- probe 1430700_a_at response, Pla2g7 (phospholipase A2, group VII (platelet-activating factor acetylhydrolase, plasma)): 2.36
- probe 1431416_a_at response, Jam2 (junction adhesion molecule 2): 2.12
- probe 1431422_a_at response, Dusp14 (dual specificity phosphatase 14): 2.14
- probe 1431611_a_at response, Cadm1 (cell adhesion molecule 1): 2.15
- probe 1431688_at response, LOC73899 (hypothetical LOC73899): 2.56
- probe 1431691_a_at response, Rab31 (RAB31, member RAS oncogene family): 1.98
- probe 1433909_at response, Syt17 (synaptotagmin XVII): 2.02
- probe 1434059_at response, B230312A22Rik (RIKEN cDNA B230312A22 gene): 2.26
- probe 1434092_at response, Atg9b (ATG9 autophagy related 9 homolog B (S. cerevisiae)): 2.04
- probe 1434109_at response, Sh3bgrl2 (SH3 domain binding glutamic acid-rich protein like 2): 2.50
- probe 1434252_at response, Tmcc3 (transmembrane and coiled coil domains 3): 1.99
- probe 1434601_at response, Amigo2 (adhesion molecule with Ig like domain 2): 2.11
- probe 1434957_at response, Cdon (cell adhesion molecule-related/down-regulated by oncogenes): 0.44
- probe 1435066_at response, Pitpnc1 (phosphatidylinositol transfer protein, cytoplasmic 1): 2.04
- probe 1435176_a_at response, Id2 (inhibitor of DNA binding 2): 0.44
- probe 1435330_at response, Pyhin1 (pyrin and HIN domain family, member 1): 2.34
- probe 1435331_at response, Pyhin1 (pyrin and HIN domain family, member 1): 3.91
- probe 1435460_at response, Prkg2 (protein kinase, cGMP-dependent, type II): 2.07
- probe 1435695_a_at response, Ggct (gamma-glutamyl cyclotransferase): 2.16
- probe 1436100_at response, Sh2d5 (SH2 domain containing 5): 2.12
- probe 1436329_at response, Egr3 (early growth response 3): 2.75
- probe 1436584_at response, Spry2 (sprouty homolog 2 (Drosophila)): 3.28
- probe 1436659_at response, Dclk1 (doublecortin-like kinase 1): 2.44
- probe 1436917_s_at response, Gpsm1 (G-protein signalling modulator 1 (AGS3-like, C. elegans)): 2.22
- probe 1436944_x_at response, Pisd /// Pisd-ps1 ///Pisd-ps3 (phosphatidylserine decarboxylase /// phosphatidylserine decarboxylase, pseudogene 1 /// phosphatidylserine decarboxylase, pseudogene 3): 0.53
- probe 1437092_at response, Clip4 (CAP-GLY domain containing linker protein family, member 4): 2.37
- probe 1437100_x_at response, Pim3 (proviral integration site 3): 2.03
- probe 1437199_at response: 4.17
- probe 1437271_at response, Clcf1 (cardiotrophin-like cytokine factor 1): 2.09
- probe 1437486_at response, Gprc5a (G protein-coupled receptor, family C, group 5, member A): 2.49
- probe 1437982_x_at response, Cox15 (COX15 homolog, cytochrome c oxidase assembly protein (yeast)): 0.51
- probe 1438038_at response, 4930402H24Rik (RIKEN cDNA 4930402H24 gene): 2.10
- probe 1438664_at response, Prkar2b (protein kinase, cAMP dependent regulatory, type II beta): 0.44
- probe 1438699_at response, Srd5a1 (steroid 5 alpha-reductase 1): 1.89
- probe 1439016_x_at response, Sprr2a (small proline-rich protein 2A): 0.40
- probe 1439109_at response, Ccdc68 (coiled-coil domain containing 68): 0.45
- probe 1439434_x_at response, Sh2d5 (SH2 domain containing 5): 2.06
- probe 1439797_at response, Ppard (peroxisome proliferator activator receptor delta): 2.09
- probe 1439878_at response, Ivl (involucrin): 3.09
- probe 1440169_x_at response, Ifnar2 (interferon (alpha and beta) receptor 2): 0.53
- probe 1440559_at response, Hmga2-ps1 (high mobility group AT-hook 2, pseudogene 1): 3.39
- probe 1441315_s_at response, Slc19a2 (solute carrier family 19 (thiamine transporter), member 2): 2.46
- probe 1441917_s_at response, Tmem40 (transmembrane protein 40): 2.00
- probe 1442350_at response: 2.22
- probe 1442363_at response, 1110012J17Rik (RIKEN cDNA 1110012J17 gene): 2.08
- probe 1443536_at response, Slc7a11 (solute carrier family 7 (cationic amino acid transporter, y+ system), member 11): 0.39
- probe 1445758_at response: 0.47
- probe 1446791_at response, Pi15 (peptidase inhibitor 15): 1.12
- probe 1447661_at response: 0.53
- probe 1447845_s_at response, Vnn1 (vanin 1): 0.46
- probe 1448364_at response, Ccng2 (cyclin G2): 2.30
- probe 1448532_at response, Prl8a9 (prolactin family8, subfamily a, member 9): 2.70
- probe 1448562_at response, Upp1 (uridine phosphorylase 1): 2.68
- probe 1448613_at response, Ecm1 (extracellular matrix protein 1): 2.00
- probe 1448617_at response, Cd53 (CD53 antigen): 2.24
- probe 1448810_at response, Gne (glucosamine): 2.16
- probe 1448855_at response, Rassf1 (Ras association (RalGDS/AF-6) domain family member 1): 1.97
- probe 1448894_at response, Akr1b8 (aldo-keto reductase family 1, member B8): 2.01
- probe 1448978_at response, Ngef (neuronal guanine nucleotide exchange factor): 3.21
- probe 1449038_at response, Hsd11b1 (hydroxysteroid 11-beta dehydrogenase 1): 2.96
- probe 1449125_at response, Tnfaip8l1 (tumor necrosis factor, alpha-induced protein 8-like 1): 2.14
- probe 1449133_at response, Sprr1a (small proline-rich protein 1A): 2.53
- probe 1449268_at response, Gfpt1 (glutamine fructose-6-phosphate transaminase 1): 2.82
- probe 1449297_at response, Casp12 (caspase 12): 0.41
- probe 1449334_at response, Timp3 (tissue inhibitor of metalloproteinase 3): 0.43
- probe 1449367_at response, Trex2 (three prime repair exonuclease 2): 4.45
- probe 1449408_at response, Jam2 (junction adhesion molecule 2): 2.04
- probe 1449545_at response, Fgf18 (fibroblast growth factor 18): 3.88
- probe 1449965_at response, Mcpt8 (mast cell protease 8): 2.83
- probe 1450241_a_at response, Evi2a (ecotropic viral integration site 2a): 4.78
- probe 1450262_at response, Clcf1 (cardiotrophin-like cytokine factor 1): 2.62
- probe 1450276_a_at response, Scin (scinderin): 2.73
- probe 1450376_at response, Mxi1 (Max interacting protein 1): 2.20
- probe 1450430_at response, Mrc1 (mannose receptor, C type 1): 2.66
- probe 1450501_at response, Itga2 (integrin alpha 2): 3.02
- probe 1450791_at response, Nppb (natriuretic peptide precursor type B): 4.55
- probe 1450976_at response, Ndrg1 (N-myc downstream regulated gene 1): 2.23
- probe 1451006_at response, Xdh (xanthine dehydrogenase): 0.40
- probe 1451308_at response, Elovl4 (elongation of very long chain fatty acids (FEN1/Elo2, SUR4/Elo3, yeast)-like 4): 2.50
- probe 1451446_at response, Antxr1 (anthrax toxin receptor 1): 0.41
- probe 1451501_a_at response, Ghr (growth hormone receptor): 2.21
- probe 1451529_at response, Sgtb (small glutamine-rich tetratricopeptide repeat (TPR)-containing, beta): 1.91
- probe 1451798_at response, Il1rn (interleukin 1 receptor antagonist): 3.05
- probe 1452058_a_at response, Rnfl1 (ring finger protein 11): 2.07
- probe 1452087_at response, Epsti1 (epithelial stromal interaction 1 (breast)): 2.20
- probe 1452203_at response, Obfc2a (oligonucleotide/oligosaccharide-binding fold containing 2A): 2.07
- probe 1452521_a_at response, Plaur (plasminogen activator, urokinase receptor): 2.33
- probe 1453055_at response, Sema6d (sema domain, transmembrane domain (TM), and cytoplasmic domain, (semaphorin) 6D): 3.32
- probe 1453278_a_at response, Clip4 (CAP-GLY domain containing linker protein family, member 4): 2.00
- probe 1453345_at response, Nipal1 (NIPA-like domain containing 1): 3.86
- probe 1454048_a_at response, 4931408A02Rik /// LOC630876 (RIKEN cDNA 4931408A02 gene /// similar to Protein C21orf63 homolog precursor): 0.40
- probe 1454254_s_at response, 1600029D21Rik (RIKEN cDNA 1600029D21 gene): 2.37
- probe 1454649_at response, Srd5a1 (steroid 5 alpha-reductase 1): 2.02
- probe 1454699_at response, LOC100047324 /// Sesn1 (similar to Sesn1 protein /// sestrin 1): 0.50
- probe 1454710_at response, Spink2 (serine peptidase inhibitor, Kazal type 2): 2.39
- probe 1454780_at response, Galntl4 (UDP-N-acetyl-alpha-D-galactosamine:polypeptide N-acetylgalactosaminyltransferase-like 4): 0.42
- probe 1454877_at response, Sertad4 (SERTA domain containing 4): 0.40
